According to ChEMBL document CHEMBL5335777 (Eur J Med Chem, 2023):
Activity calls are given as the source filed them. The calls are words filed in the database; no cut-off is given here.

Tests used:
[1] = Toxicity in immunodeficient NOD-SCID mouse xenografted with human NCI-H1792 cells harboring KRAS G12C mutant assessed as body weight at 5 to 30 mg/kg, ip administered for 5 times at 5 mg/kg in first week followed by administration at 20 mg/kg 5 times in second week and further administered 30 mg/kg 3 times in third week measured 20 days post treatment initiation and 38 days post tumor transplantation (reference value: 6.6 g); assay type: organism-based; details: in vivo, 480 h, dose 5-30 mg/kg, time 20 day
NCI-H1792 [2] = assay: Antiproliferative activity against human NCI-H1792 cells harboring heterozygous KRAS G12C mutant assessed as inhibition of cell growth incubated for 72 hrs by MTT assay; assay type: functional, cell-based; details: NCI-H1792, 72 h
[3] = Tmax in NOD-SCID mouse at 15 mg/kg, ip administered as single dose and measured upto 48 hrs by HPLC/MS analysis; assay type: ADME, organism-based; details: in vivo
[4] = Clearance in NOD-SCID mouse at 15 mg/kg, ip administered as single dose and measured upto 48 hrs by HPLC/MS analysis; assay type: ADME, organism-based; details: in vivo
[5] = system: GTPase KRas (Homo sapiens), P01116 [G12C]; assay: Binding affinity to Cys118 residue of GDP bound human KRAS-4B G12C mutant (1 to 169 residues) expressed in Escherichia coli BL21 Rosetta cells at 150 to 500 uM measured after 96 hrs by 1H-15N HSQC NMR spectral analysis; details: dose 150-500 µM
[6] = system: GTPase KRas (Homo sapiens), P01116 [G12C]; assay: Covalent binding affinity to GDP-bound human KRAS-4B G12C mutant (1 to 169 residues) expressed in Escherichia coli BL21 Rosetta cells assessed as labelling on Cys12 residue by intact LCMS analysis
NCI-H1792 [7] = assay: Antiproliferative activity against human NCI-H1792 cells harboring KRAS G12C mutant assessed as reduction in cell viability at 2.5 uM incubated for 72 hrs by MTT assay; assay type: functional, cell-based
[8] = system: GTPase KRas (Homo sapiens), P01116 [G12C]; assay: Covalent binding affinity to GDP-bound human KRAS-4B G12C mutant (1 to 169 residues) expressed in Escherichia coli BL21 Rosetta cells at 200 uM measured after 1 hr by Ellman's assay
[9] = Cytotoxicity against human MRC5 cells assessed as inhibition of cell growth incubated for 72 hrs by MTT assay; assay type: toxicity, cell-based
[10] = system: GTPase KRas (Homo sapiens), P01116 [G12C]; assay: Covalent binding affinity to GDP-bound human KRAS-4B G12C mutant (1 to 169 residues) expressed in Escherichia coli BL21 Rosetta cells assessed as reduction in free Cys residues at 200 uM measured after 1 hr by Ellman's assay
[11] = Antiproliferative activity against human HCA-7 cells harboring wild type KRAS assessed as inhibition of cell growth incubated for 72 hrs by MTT assay; assay type: functional, cell-based, HCA7; details: HCA-7, 72 h
PANC-1 = assay: Antiproliferative activity against human PANC-1 cells harboring heterozygous KRAS G12D mutant assessed as inhibition of cell growth incubated for 72 hrs by MTT assay; assay type: functional, cell-based; details: PANC-1, 72 h
[12] = Toxicity in immunodeficient NOD-SCID mouse xenografted with human LCLC-103H cells harboring wild type KRAS assessed as body weight at 5 to 30 mg/kg, ip administered for 5 times at 5 mg/kg in first week followed by administration at 20 mg/kg 5 times in second week and further administered 30 mg/kg 3 times in third week measured 17 days post treatment initiation and 35 days post tumor transplantation (reference value: 2.6 g); assay type: organism-based; details: in vivo, 408 h, dose 5-30 mg/kg, time 17 day
[13] = Cytotoxicity against human CCD-986Sk cells assessed as inhibition of cell growth incubated for 72 hrs by MTT assay; assay type: toxicity, cell-based
[14] = Cytotoxicity against HUVEC cells immortalized with TERT assessed as inhibition of cell growth incubated for 72 hrs by MTT assay; assay type: toxicity, cell-based; details: human
[15] = Half life in NOD-SCID mouse at 15 mg/kg, ip administered as single dose and measured upto 48 hrs by HPLC/MS analysis; assay type: ADME, organism-based; details: in vivo
[16] = Volume of distribution in NOD-SCID mouse at 15 mg/kg, ip administered as single dose and measured upto 48 hrs by HPLC/MS analysis; assay type: ADME, organism-based; details: in vivo
[17] = AUCt in NOD-SCID mouse at 15 mg/kg, ip administered as single dose and measured upto 48 hrs by HPLC/MS analysis; assay type: ADME, organism-based; parameters: dose 15 mg/kg, time < 48 hrs, route ip; details: in vivo
A549 = assay: Antiproliferative activity against human A549 cells harboring homozygous KRAS G12S mutant assessed as inhibition of cell growth incubated for 72 hrs by MTT assay; assay type: functional, cell-based; details: A549, 72 h
LCLC-103H cell line [18] = assay: Antitumor activity against human LCLC-103H cells harboring wild type KRAS xenografted in immunodeficient NOD-SCID mouse assessed as tumor volume at 5 to 30 mg/kg, ip administered for 5 times at 5 mg/kg in first week followed by administration at 20 mg/kg 5 times in second week and further administered 30 mg/kg 3 times in third week measured 17 days post treatment initiation and 35 days post tumor transplantation by digital caliper based analysis; assay type: functional; details: dose 5-30 mg/kg, time 17 day
NCI-H1792 [19] = assay: Antiproliferative activity against human NCI-H1792 cells harboring KRAS G12C mutant assessed as cell viability at 25 uM incubated for 72 hrs by MTT assay relative to control; assay type: functional; details: read-out: Activity
NCI-H358 = assay: Antiproliferative activity against human NCI-H358 cells harboring heterozygous KRAS G12C mutant assessed as inhibition of cell growth incubated for 72 hrs by MTT assay; assay type: functional, cell-based; details: NCI-H358, 72 h
SW1573 = assay: Antiproliferative activity against human SW1573 cells harboring homozygous KRAS G12C mutant assessed as inhibition of cell growth incubated for 72 hrs by MTT assay; assay type: functional, cell-based; details: SW1573, 72 h
BXPC-3 = assay: Antiproliferative activity against human BXPC-3 cells harboring wild type KRAS assessed as inhibition of cell growth incubated for 72 hrs by MTT assay; assay type: functional, cell-based; details: BXPC-3, 72 h
LCLC-103H cell line [20] = assay: Antiproliferative activity against human LCLC-103H cells harboring wild type KRAS assessed as inhibition of cell growth incubated for 72 hrs by MTT assay; assay type: functional, cell-based
[21] = system: GTPase KRas (Homo sapiens), P01116 [G12C]; assay: Covalent binding affinity to GDP-bound human KRAS-4B G12C mutant (1 to 169 residues) expressed in Escherichia coli BL21 Rosetta cells at 200 uM measured after 4 hrs by Ellman's assay
[22] = system: GTPase KRas (Homo sapiens), P01116 [G12C]; assay: Binding affinity to Cys12 residue of GDP bound human KRAS-4B G12C mutant (1 to 169 residues) expressed in Escherichia coli BL21 Rosetta cells at 150 to 500 uM measured after 96 hrs by 1H-15N HSQC NMR spectral analysis; details: dose 150-500 µM
[23] = system: GTPase KRas (Homo sapiens), P01116 [G12C]; assay: Binding affinity to Cys80 residue of GDP bound human KRAS-4B G12C mutant (1 to 169 residues) expressed in Escherichia coli BL21 Rosetta cells at 150 to 500 uM measured after 96 hrs by 1H-15N HSQC NMR spectral analysis; details: dose 150-500 µM
MIA PaCa-2 = assay: Antiproliferative activity against human MIA PaCa-2 cells harboring homozygous KRAS G12C mutant assessed as inhibition of cell growth incubated for 72 hrs by MTT assay; assay type: functional, cell-based; details: MIA PaCa-2, 72 h
[24] = Cmax in NOD-SCID mouse at 15 mg/kg, ip administered as single dose and measured upto 48 hrs by HPLC/MS analysis; assay type: ADME, organism-based; parameters: time < 48 hrs, dose 15 mg/kg, route ip; details: in vivo
NCI-H1792 [25] = assay: Antitumor activity against human NCI-H1792 cells harboring KRAS G12C mutant xenografted in immunodeficient NOD-SCID mouse assessed as reduction in tumor growth at 5 to 30 mg/kg, ip administered for 5 times at 5 mg/kg in first week followed by administration at 20 mg/kg 5 times in second week and further administered 30 mg/kg 3 times in third week measured 17 days post treatment initiation and 35 days post tumor transplantation by digital caliper based analysis relative to control; assay type: functional; parameters: scale not given: the % may be the effect or the level left; details: dose 5-30 mg/kg, time 17 day
[26] = Toxicity in immunodeficient NOD-SCID mouse xenografted with human NCI-H1792 cells harboring KRAS G12C mutant assessed as body weight at 5 to 30 mg/kg, ip administered for 5 times at 5 mg/kg in first week followed by administration at 20 mg/kg 5 times in second week and further administered 30 mg/kg 3 times in third week measured 17 days post treatment initiation and 35 days post tumor transplantation (reference value: 6.6 g); assay type: organism-based; details: in vivo, 408 h, dose 5-30 mg/kg, time 17 day
SW480 = assay: Antiproliferative activity against human SW480 cells harboring homozygous KRAS G12V mutant assessed as inhibition of cell growth incubated for 72 hrs by MTT assay; assay type: functional, cell-based; details: SW480, 72 h
[27] = system: GTPase KRas (Homo sapiens), P01116 [G12C]; assay: Binding affinity to Cys51 residue of GDP bound human KRAS-4B G12C mutant (1 to 169 residues) expressed in Escherichia coli BL21 Rosetta cells at 150 to 500 uM measured after 96 hrs by 1H-15N HSQC NMR spectral analysis; details: dose 150-500 µM

For `O=C1Nc2cc(Cl)cc(Cl)c2C1=O`, the Activity [1] was 9.1 g, the IC50 (NCI-H1792 [2]) was 11 µM and the Tmax [3] was 0.25 h. For the same molecule, the CL/F [4] was 31.6 mL/min, the Activity [5] was “inactive” and the Activity [6] was “Active”. For the same molecule, the Activity (NCI-H1792 [7]) was “Active”, the Activity [8] was “Active” and the IC50 at 72 h [9] was 47.9 µM. For the same molecule, the Activity [10] was “Active”, the IC50 [11] was 9.8 µM and the IC50 (PANC-1) was 38 µM. For the same molecule, the Activity [12] was 2.8 g, the IC50 at 72 h [13] was 42.7 µM and the IC50 at 72 h [14] was 24.4 µM. It also gave a half-life [15] of 4.4 h, a Vd [16] of 12096 mL and an AUC(0-t) at 48 h [17] of 169 ng·h/mL. The IC50 (A549) was 44.4 µM, the Activity (LCLC-103H cell line [18]) was 13.3 mm3 and the viability at 25 µM (NCI-H1792 [19]) was < 50%. It also gave an IC50 (NCI-H358) of 16.9 µM, an IC50 (SW1573) of 23.6 µM and an IC50 (BXPC-3) of 13.1 µM. The IC50 (LCLC-103H cell line [20]) was 30 µM, the Activity [21] was 50% and the Activity [22] was “Active”. The Activity [23] was “inactive”, the IC50 (MIA PaCa-2) was 13.7 µM and the Cmax [24] was 337 ng/mL. The Activity (NCI-H1792 [25]) was 35.8%, the Activity [26] was 6.9 g and the IC50 (SW480) was 14.8 µM. For the same molecule, the Activity [27] was “inactive”.
